In assay [1] the target is T1, Carbonic anhydrase 9 (Homo sapiens, UniProt Q16790).
Description: Inhibition of human carbonic anhydrase IX assessed as inhibition constant incubated for 15 mins by stopped-flow carbon dioxide hydration assay
The subject of assay [2] is SK-MEL-2. The experiment in a line: Anti-melanoma activity against human SK-MEL-2 cells assessed as inhibition of cell proliferation at 10 to 300 uM incubated for 72 hrs by MACSQUant analyzer. The class given is functional, cell-based. The settings on record: dose 10-300 µM.
In assay [3] the target is T2, Carbonic anhydrase 1 (Homo sapiens, UniProt P00915). The experiment in a line: Inhibition of human carbonic anhydrase I assessed as inhibition constant incubated for 15 mins by stopped-flow carbon dioxide hydration assay.
The target of assay [4] is T3, Carbonic anhydrase 2 (Homo sapiens, UniProt P00918). The experiment in a line: Inhibition of human carbonic anhydrase II assessed as inhibition constant incubated for 15 mins by stopped-flow carbon dioxide hydration assay.
Assay [5] addresses T4, Carbonic anhydrase 12 (Homo sapiens, UniProt O43570). Briefly: Inhibition of human carbonic anhydrase XII assessed as inhibition constant incubated for 15 mins by stopped-flow carbon dioxide hydration assay.
The test system of assay [6] is A-375. The experiment in a line: Anti-melanoma activity against human A-375 cells assessed as inhibition of cell proliferation at 10 to 300 uM incubated for 72 hrs by MACSQUant analyzer. The class given is functional, cell-based. The conditions noted are these: dose 10-300 µM.
The test system of assay [7] is A2058. Briefly: Anti-melanoma activity against human A2058 cells assessed as inhibition of cell proliferation at 10 to 300 uM incubated for 72 hrs by MACSQUant analyzer. The assay is classed as functional, cell-based. The settings on record: dose 10-300 µM.
Assay [8] relates to A-375. Briefly: Anti-melanoma activity against human A-375 cells assessed as inhibition of cell proliferation incubated for 72 hrs by MACSQUant analyzer. The conditions noted are these: A-375, 72 h. The class given is functional, cell-based.
In assay [9] the target is T1, Carbonic anhydrase 9. Briefly: Inhibition of human carbonic anhydrase IX catalytic domain assessed as inhibition constant incubated for 15 to 360 mins by stopped-flow CO2 hydration assay.
For assay [10], the target named is T4, Carbonic anhydrase 12. Briefly: Inhibition of human carbonic anhydrase XII catalytic domain assessed as inhibition constant incubated for 15 to 360 mins by stopped-flow CO2 hydration assay.
Assay [11] deals with T3, Carbonic anhydrase 2. The experiment in a line: Inhibition of human carbonic anhydrase II assessed as inhibition constant incubated for 15 to 360 mins by stopped-flow CO2 hydration assay.
For assay [12], the target named is T2, Carbonic anhydrase 1. Briefly: Inhibition of human carbonic anhydrase I assessed as inhibition constant incubated for 15 to 360 mins by stopped-flow CO2 hydration assay.
For assay [13], the system named is A2058. Briefly: Anti-melanoma activity against human A2058 cells assessed as inhibition of cell proliferation at 100 uM incubated for 72 hrs by MACSQUant analyzer. The class given is functional, cell-based.
The subject of assay [14] is SK-MEL-2. The experiment in a line: Anti-melanoma activity against human SK-MEL-2 cells assessed as inhibition of cell proliferation at 100 uM incubated for 72 hrs by MACSQUant analyzer. The assay is classed as functional, cell-based.
Assay [15] has as its system A-375. The experiment in a line: Anti-melanoma activity against human A-375 cells assessed as inhibition of cell proliferation at 100 uM incubated for 72 hrs by MACSQUant analyzer. The assay is classed as functional, cell-based.
Assay [16] has as its system SK-MEL-2. Briefly: Anti-melanoma activity against human SK-MEL-2 cells assessed as inhibition of cell proliferation at 200 uM incubated for 72 hrs by MACSQUant analyzer. The class given is functional, cell-based.
In assay [17] the test system is A-375. Briefly: Anti-melanoma activity against human A-375 cells assessed as inhibition of cell proliferation at 200 uM incubated for 72 hrs by MACSQUant analyzer. The class given is functional, cell-based.
The subject of assay [18] is A2058. Briefly: Anti-melanoma activity against human A2058 cells assessed as inhibition of cell proliferation at 200 uM incubated for 72 hrs by MACSQUant analyzer. The assay is classed as functional, cell-based.

The source made the active and inactive calls. The rule behind the calls is not given here.

Broadly, the Ki is a measure of affinity in units of concentration, obtained from inhibition or displacement. A word on the IC50: it is the concentration that gives 50% inhibition.

T2 sequence (P00915 whole entry): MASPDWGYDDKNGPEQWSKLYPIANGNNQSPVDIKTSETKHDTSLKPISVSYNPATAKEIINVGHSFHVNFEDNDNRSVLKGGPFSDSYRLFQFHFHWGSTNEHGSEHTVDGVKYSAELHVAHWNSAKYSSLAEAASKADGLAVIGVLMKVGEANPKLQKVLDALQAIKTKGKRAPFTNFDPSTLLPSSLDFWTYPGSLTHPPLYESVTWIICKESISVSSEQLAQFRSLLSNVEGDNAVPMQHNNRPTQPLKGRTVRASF
T4 sequence (O43570 whole entry): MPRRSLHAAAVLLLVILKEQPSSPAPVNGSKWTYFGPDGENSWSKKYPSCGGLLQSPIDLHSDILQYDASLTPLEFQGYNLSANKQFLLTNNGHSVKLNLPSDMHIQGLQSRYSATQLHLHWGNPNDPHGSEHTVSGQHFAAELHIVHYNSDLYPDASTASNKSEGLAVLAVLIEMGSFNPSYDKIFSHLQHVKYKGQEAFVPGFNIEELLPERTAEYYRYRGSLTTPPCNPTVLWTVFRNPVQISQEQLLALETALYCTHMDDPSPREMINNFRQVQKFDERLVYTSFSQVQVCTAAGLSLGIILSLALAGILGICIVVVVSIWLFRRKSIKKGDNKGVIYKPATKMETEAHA

In the case of `OB1OCCc2ccc(NC(=S)NCc3ccccc3)cc21`, the Ki in [1] worked out at 52.8 nM; in assay [3], 614 nM; in assay [4], 41.7 nM; in assay [5] it was 69 nM. The outcome in [2], in assay [6] and in assay [7] was Active. Also, the IC50 in assay [8] worked out at 126000 nM.
Consider `O=C(NCc1ccccc1)Nc1ccc2c(c1)B(O)OC2`, for which the Ki was found to be 925 nM in assay [9] and 184 nM in assay [10].
For `O=C(Nc1ccccc1)Nc1ccc2c(c1)B(O)OC2` the same measures were 1060 nM and 240 nM.
In the case of `OB1OCc2ccc(NC(=S)Nc3ccccc3)cc21`, the Ki in [9] was determined as 436 nM; in [10], 76 nM; in assay [11] it was 1150 nM; in [12], 548 nM.
As for `O=[N+]([O-])c1ccc2c(c1)B(O)OCC2`, the Ki was determined as 25 nM in assay [1], 44500 nM in assay [3], 983 nM in assay [4] and 920 nM in [5].
On to `O=C(Nc1ccc(C(F)(F)F)cc1)Nc1ccc2c(c1)B(O)OC2`, for which the Ki is 845 nM in assay [9] and 93 nM in assay [10].
For `Nc1ccc2c(c1)B(O)OC2`, the Ki in assay [9] is 813 nM; in [10], 640 nM.
Take `OB1OCc2ccc(NC(=S)NCc3ccccc3)cc21`: the Ki in assay [9] was 610 nM; in [10] it was 42 nM; in assay [12], 380 nM.
In the case of `OB1OCc2ccc(NC(=S)Nc3ccc(F)cc3)cc21`, the figures for the inhibition constant Ki in assay [9] and in [10] were 336 nM and 89 nM, respectively.
With `OB1OCCc2ccccc21` [BENZOXABORIN], the Ki in assay [1] worked out at 9840 nM; in [3] it was 3870 nM; in assay [4] it was 1950 nM; in assay [5], 754 nM.
The like results for `OB1OCCc2ccc(NC(=S)Nc3ccccc3)cc21` were, in that order, 312 nM, 798 nM, 295 nM and 191 nM.
For `OB1OCCc2ccc(NC(=S)Nc3ccc(C(F)(F)F)cc3)cc21` the same measures were 349 nM, 16800 nM, 44.9 nM and 82 nM.
In the case of `OB1OCCc2ccc(NC(=S)Nc3ccc(F)cc3)cc21`, the Ki in assay [1] is 88.5 nM; in [3], 1590 nM; in assay [4] it was 434 nM; in assay [5], 151 nM.
`O=C(Nc1ccc(F)cc1)Nc1ccc2c(c1)B(O)OCC2`: the Ki in assay [1] came out at 451 nM; in assay [3], 3490 nM; in [4] it was 85.9 nM; in assay [5], 278 nM. For the same compound, the result in assay [13], in assay [14] and in [15] was Active. Also, the IC50 in assay [8] was 132000 nM.
For `O=C(NCc1ccccc1)Nc1ccc2c(c1)B(O)OCC2`, the inhibition constant Ki in [1] turned out to be 163 nM; in assay [3], 637 nM; in assay [4], 112 nM; in assay [5] it was 80.7 nM. The outcome in assay [2], in assay [6] and in assay [7] was Active. In assay [8], the IC50 was 31600 nM.
`NS(=O)(=O)c1ccc(NC(=O)Nc2ccc(F)cc2)cc1` [SLC-0111]: the result in assay [16], in assay [17] and in assay [18] was Active. The IC50 in assay [8] came out at 111000 nM.
For `Nc1ccc2c(c1)B(O)OCC2`, the Ki in assay [1] was 45 nM; in [3], > 100000 nM; in [4], 2920 nM; in assay [5] it was 2310 nM.
Take `O=[N+]([O-])c1ccc2c(c1)B(O)OC2`: the results for the Ki in assay [9] and in [10] were 94 nM and 92 nM, respectively.
For `O=C(Nc1ccc(C(F)(F)F)cc1)Nc1ccc2c(c1)B(O)OCC2`, the inhibitory constant (Ki) in [1] is 139 nM; in assay [3] it was 20700 nM; in assay [4], 306 nM; in [5], 354 nM.
With `O=C(Nc1ccccc1)Nc1ccc2c(c1)B(O)OCC2`, the Ki in assay [1] turned out to be 268 nM; in assay [3], 19000 nM; in [4], 262 nM; in [5], 210 nM.
As to `O=C(Nc1ccc(F)cc1)Nc1ccc2c(c1)B(O)OC2`, the inhibitory constant (Ki) in assay [9] is 843 nM; in [10] it was 175 nM.
`O=[N+]([O-])c1ccc(NC(=S)Nc2ccc3c(c2)B(O)OCC3)cc1`: the Ki in assay [1] worked out at 63.2 nM; in assay [3], 523 nM; in [4], 452 nM; in assay [5], 46.4 nM.
Regarding `OB1OCc2ccccc21` [BENZOXABOROLE], the inhibitory constant (Ki) in assay [9] and in assay [10] was > 50000 nM in each case.

Values taken from ChEMBL document CHEMBL6127103, “Benzoxaborinine, New Chemotype for Carbonic Anhydrase Inhibition: Ex Novo Synthesis, Crystallography, In Silico Studies, and Anti-Melanoma Cell Line Activity” (J Med Chem, 2024).
